Measured values: patent KR20100130589A, “중독 치료에서의 aldh-2 저해제” (질레드 팔로 알토 인코포레이티드, priority 2008, dated 2009)
Entries after “also recorded” stand apart in the source; their conditions may differ.

Experiments:
[1] = Cocaine reinstatement (relapse) after extinction of intravenous cocaine self-administration; type: in vivo, Sprague-Dawley rat; settings: rat; for effect on cocaine-induced relapse, compared with Compound A (result in words): tested similarly
[2] = Nicotine intravenous self-administration; type: in vivo, Wistar-derived rat; settings: rat, escalating doses 0.00, 7.5, 10 and 15 mg/kg ip, 30 min before session; Figure 1
[3] = in vivo; cited from earlier work
[4] = molecular target: T1, human mitochondrial aldehyde dehydrogenase (ALDH-2) [인간 미토콘드리아 알데히드 디히드로게나아제 (ALDH-2)] (Homo sapiens, UniProt P05091); settings: potency and selectivity in words; cited from earlier work
T1 sequence (P05091 18-517): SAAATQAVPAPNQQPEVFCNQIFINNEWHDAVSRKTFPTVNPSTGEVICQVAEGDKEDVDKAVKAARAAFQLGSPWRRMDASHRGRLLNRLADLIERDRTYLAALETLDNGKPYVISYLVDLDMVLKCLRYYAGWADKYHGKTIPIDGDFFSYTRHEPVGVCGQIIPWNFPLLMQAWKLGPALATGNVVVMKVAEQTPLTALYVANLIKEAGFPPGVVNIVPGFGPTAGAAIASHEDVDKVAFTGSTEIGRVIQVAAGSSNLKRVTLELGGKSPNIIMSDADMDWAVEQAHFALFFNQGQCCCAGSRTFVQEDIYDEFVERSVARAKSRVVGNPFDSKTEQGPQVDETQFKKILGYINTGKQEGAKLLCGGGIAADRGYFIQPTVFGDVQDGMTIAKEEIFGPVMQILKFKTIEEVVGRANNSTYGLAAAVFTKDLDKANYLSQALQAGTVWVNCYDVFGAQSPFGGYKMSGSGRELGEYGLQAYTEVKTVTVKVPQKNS

In the case of `O=C(O)c1cccc(-c2nc(COc3ccc4c(=O)c(-c5ccc(O)cc5)coc4c3)no2)c1` [3-(3-{[3-(4-히드록시페닐)-4-옥소크로멘-7-일옥시]메틸}-1,2,4-옥사디아졸-5-일)벤조산], the “effect on cocaine-induced relapse, compared with Compound A (result in words)” value [1] is reported as “유사한 결과가 수득되었다”.
In the case of `CS(=O)(=O)Nc1ccc(-c2coc3cc(OCc4cccc(C(=O)O)c4)ccc3c2=O)cc1` [3-[(3-{4-[(메틸술포닐)아미노]페닐}-4-옥소크로멘-7-일옥시)메틸]벤조산], the “lever press response after cocaine priming (effect in words)” value ([1]; 7.5 and 10 mg/kg before priming injection of cocaine (10 mg/kg)) is reported as “지렛대 누름 반응에서 증가를 보여주지 않았다 (재발하지 않음)”, the “cocaine relapse (effect in words)” value ([1]; ip, dose-dependent, cocaine priming 10 mg/kg) is reported as “투여량에 좌우되어 코카인에 대한 재발을 차단했다” and the “number of bar presses for nicotine (plotted as number of infusions)” value [2] is reported as “횟수를 감소시켰다; also recorded: 바아 프레스의 횟수를 감소시키는”.
In the case of `O=c1c(-c2ccc(O)cc2)coc2cc(OCc3noc(-c4cc(F)cc(C(F)(F)F)c4)n3)ccc12` [7-({5-[3-플루오로-5-(트리플루오로메틸)페닐](1,2,4-옥사디아졸-3-일)}메톡시)-3-(4-히드록시페닐)크로멘-4-온], the “effect on cocaine-induced relapse, compared with Compound A (result in words)” value [1] is reported as “유사한 결과가 수득되었다”.
For `O=c1c(-c2ccc(O)cc2)coc2cc(O[C@@H]3O[C@H](CO)[C@@H](O)[C@H](O)[C@H]3O)ccc12` [다이드진 (daidzein)], the “suppression of ethanol intake / absorption (in words)” value [3] is listed as “에탄올 섭취 억제에 효과적인”.
In the case of `O=c1c(-c2ccc(O)cc2)coc2cc(O)ccc12` [다이드진], the “inhibition of ALDH-2 (in words)” value [4] is given as “강력하고 선택적인 저해제” and the “suppression of ethanol intake / absorption (in words)” value [3] is given as “에탄올 흡수 억제에 유효한”.
